Results: PMC9929129, “Towards Translation of PqsR Inverse Agonists: From In Vitro Efficacy Optimization to In Vivo Proof‐of‐Principle” (Advanced Science, 2023)
“Also recorded” adds a separate entry of the source.

How the values were obtained:
ENaC channel = target: T1, ENaC channel (Homo sapiens, UniProt P37088+P51168+P51170); assay: Ion channel profiling at Charles River: ENaC; type: cell-based
T1 construct: host or cells: HEK293 cells
Procedure: (§1) 1.4.3 Ion Channel Profiling at Charles River
Table S9. Compound 24 was tested against the following ion channels at Charles River Laboratories.
ASSAY TYPE ION CHANNEL AND EXPRESSION SYSTEM ESTIMATED […]
ScreenPatch Assay Kv1.3 potassium channel (human KCNA3 gene) expressed in CHO
ENaC channel (human SCNN1A, SCNN1B and SCNN1G genes, >30
(§2) FLIPR Assay expressed in HEK293 cells
GABAA α5/β3/γ2 ionotropic receptor (human GABRA5, GABRB3, >30
and GABRG2 genes, expressed in HEK293 cells

hERG = target: T2, hERG (Homo sapiens, UniProt Q12809); assay: hERG safety, single cell electrophysiology; type: cell-based; settings: read-out: hERG inhibition IC50
T2 construct: Cyprotex
T2 sequence (Q12809 whole entry): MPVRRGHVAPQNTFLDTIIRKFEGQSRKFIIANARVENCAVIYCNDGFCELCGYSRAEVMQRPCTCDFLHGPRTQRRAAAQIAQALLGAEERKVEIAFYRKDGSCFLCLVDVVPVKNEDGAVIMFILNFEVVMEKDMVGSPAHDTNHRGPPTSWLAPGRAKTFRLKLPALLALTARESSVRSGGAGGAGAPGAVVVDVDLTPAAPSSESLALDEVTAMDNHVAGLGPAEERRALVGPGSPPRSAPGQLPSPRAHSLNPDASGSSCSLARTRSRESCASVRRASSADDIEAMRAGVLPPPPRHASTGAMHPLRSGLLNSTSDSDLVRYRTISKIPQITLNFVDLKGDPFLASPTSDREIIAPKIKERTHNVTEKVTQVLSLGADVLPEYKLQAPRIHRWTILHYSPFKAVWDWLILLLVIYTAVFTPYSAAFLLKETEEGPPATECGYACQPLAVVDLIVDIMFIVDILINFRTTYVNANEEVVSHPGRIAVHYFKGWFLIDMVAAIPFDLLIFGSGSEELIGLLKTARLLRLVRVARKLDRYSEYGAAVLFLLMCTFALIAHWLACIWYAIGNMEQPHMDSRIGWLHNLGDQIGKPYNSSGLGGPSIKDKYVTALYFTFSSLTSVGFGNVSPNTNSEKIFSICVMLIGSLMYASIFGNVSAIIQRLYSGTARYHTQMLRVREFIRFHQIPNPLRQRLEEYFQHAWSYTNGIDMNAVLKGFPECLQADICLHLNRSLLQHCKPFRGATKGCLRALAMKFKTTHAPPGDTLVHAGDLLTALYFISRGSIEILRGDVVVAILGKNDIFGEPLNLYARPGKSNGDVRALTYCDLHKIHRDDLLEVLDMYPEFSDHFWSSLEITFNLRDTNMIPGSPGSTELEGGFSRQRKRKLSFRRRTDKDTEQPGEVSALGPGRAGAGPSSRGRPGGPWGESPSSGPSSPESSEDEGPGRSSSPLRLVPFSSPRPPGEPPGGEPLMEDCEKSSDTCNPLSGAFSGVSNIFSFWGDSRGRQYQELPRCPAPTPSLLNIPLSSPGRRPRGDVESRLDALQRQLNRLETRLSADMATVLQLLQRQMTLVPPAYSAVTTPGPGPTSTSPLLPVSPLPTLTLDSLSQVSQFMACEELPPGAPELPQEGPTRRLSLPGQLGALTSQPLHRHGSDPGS
Procedure: (§3) 1.4.4 Pharmacokinetic and off-target functional assays (Cyprotex)
(§4) Compound 24 was assayed at Cyprotex in functional assays for interference with important off-targets as well as important pharmacokinetic parameters. With the exception of plasma protein binding, a dose-response relationship was studied in order to calculate IC50 values.
(§5) Table S10. Information on in vitro ADMET assays performed at Cyprotex. […]
(§6) An increase in the number of colonies of at least two-fold over baseline (mean + SD of the vehicle control) and a dose response indicate a positive response. An […]
(§7) different from the vehicle control.
(§8) Where indicated, S9 fraction from the livers of Aroclor 1254-treated rats were included in the incubation at a final concentration of 4.5%. A NADPH-regenerating system was also included to ensure a steady supply of reducing equivalents.

TRPA1 channel = target: T3, TRPA1 channel (Homo sapiens, UniProt O75762); assay: Ion channel profiling at Charles River: TRPA1; type: cell-based; settings: expressed in CHO cells; read-out: ESTIMATED IC50
T3 construct: host or cells: CHO cells
T3 sequence (O75762 whole entry): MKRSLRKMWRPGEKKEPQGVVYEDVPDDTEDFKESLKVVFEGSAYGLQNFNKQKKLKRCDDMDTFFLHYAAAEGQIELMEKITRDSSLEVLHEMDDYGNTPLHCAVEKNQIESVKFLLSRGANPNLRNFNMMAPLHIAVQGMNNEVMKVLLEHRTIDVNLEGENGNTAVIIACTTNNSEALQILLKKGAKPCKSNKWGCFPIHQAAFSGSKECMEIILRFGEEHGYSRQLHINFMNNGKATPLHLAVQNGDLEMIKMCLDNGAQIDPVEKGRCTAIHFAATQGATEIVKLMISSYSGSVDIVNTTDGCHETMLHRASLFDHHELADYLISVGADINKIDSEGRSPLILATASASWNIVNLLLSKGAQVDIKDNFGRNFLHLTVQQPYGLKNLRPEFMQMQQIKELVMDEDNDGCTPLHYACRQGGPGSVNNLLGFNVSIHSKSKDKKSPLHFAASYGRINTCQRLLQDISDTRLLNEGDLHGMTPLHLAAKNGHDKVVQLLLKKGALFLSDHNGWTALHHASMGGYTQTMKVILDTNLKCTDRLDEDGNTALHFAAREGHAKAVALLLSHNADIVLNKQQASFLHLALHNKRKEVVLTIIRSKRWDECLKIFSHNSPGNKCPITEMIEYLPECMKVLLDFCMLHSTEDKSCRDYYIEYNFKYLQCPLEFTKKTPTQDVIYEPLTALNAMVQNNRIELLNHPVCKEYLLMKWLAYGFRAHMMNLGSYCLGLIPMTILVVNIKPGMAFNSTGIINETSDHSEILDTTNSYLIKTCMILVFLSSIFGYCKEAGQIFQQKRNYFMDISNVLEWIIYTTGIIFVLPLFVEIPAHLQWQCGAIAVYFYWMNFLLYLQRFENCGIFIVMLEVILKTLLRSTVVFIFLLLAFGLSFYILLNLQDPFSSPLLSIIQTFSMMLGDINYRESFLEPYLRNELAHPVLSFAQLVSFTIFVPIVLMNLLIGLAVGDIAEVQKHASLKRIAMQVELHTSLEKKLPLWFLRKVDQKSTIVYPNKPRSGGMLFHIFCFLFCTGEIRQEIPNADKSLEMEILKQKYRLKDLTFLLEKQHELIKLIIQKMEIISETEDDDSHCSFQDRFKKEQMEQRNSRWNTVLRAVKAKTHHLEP
Procedure: as §1
Table S9. Compound 24 was tested against the following ion channels at Charles River Laboratories. […]
ScreenPatch Assay Kv1.3 potassium channel (human KCNA3 gene) expressed in CHO […]
as §2
GABAA α5/β3/γ2 ionotropic receptor (human GABRA5, GABRB3, >30 and GABRG2 genes, expressed in HEK293 cells […]
TRPA1 channel (human TRPA1 gene) expressed in CHO cells >30 […]
as §6, §7, §8

[1] = Metabolic stability in mouse hepatocytes; type: in vitro ADME; settings: read-out: Mouse hepatocytes t½
[2] = system: Salmonella typhimurium TA98 and TA100; assay: Mini-AMES; type: cell-based; settings: @62.25 µg mL^−1 (147 × 10^−6 M); also in presence of rat liver S9 fractions
Procedure: P2X4 receptor (human P2RX4 gene) expressed in HEK293 cells >30
TRPA1 channel (human TRPA1 gene) expressed in CHO cells >30
TRPC6 channel (human TRPC6 gene) expressed in HEK293 cells >30
TRPV1 channel (human TRPV1 gene) expressed in HEK293 cells >30
TRPV4 channel (human TRPV4 gene) expressed in CHO cells >30
as §3, §4, §5
Approximately ten million bacteria were exposed in triplicate to 24 (1.9, 3.9, 7.8, 15.6, 31.2, 62.5 µg/mL), a negative control (vehicle) and positive controls for 90 min in medium containing a low concentration of histidine (sufficient for about 2 doublings.) The cultures were then diluted into indicator medium lacking histidine, and dispensed into 48 wells of 384-well plates (micro-plate format, MPF). […] The wells showing growth were counted and compared to the vehicle control. […]
The maximum tolerated dose of 24 in NMRI mice was conducted and analyzed at CRO ATRC Aurigon Toxicological Research Center Ltd, Hungary. […]

[3] = In vivo PK study, IP, SC and PO; settings: male, CD-1, mouse, plasma, 20 mg/kg
Procedure: For pharmacokinetic experiments via the intraperitoneally (IP), subcutaneously (SC) and perorally
(PO) route 4 weeks old outbred male CD-1 mice (Charles River, Netherlands) were used.
were administered 24 at 20 mg/kg intraperitoneally (IP), subcutaneously (SC) and perorally (PO).
About 20 μL of whole blood was collected serially from the lateral tail vein at time points t = 0.25
(only IP and SC), 0.5, 1, 2, 4, and 8 h post administration.
was collected from the heart. Whole blood was collected into Eppendorf tubes coated with 0.5 M EDTA and immediately spun down at 13,000 rpm for 10 min at 4 °C. The plasma was transferred into
a new Eppendorf tube and then stored at −80 °C until analysis.

T1 sequence (P51170 whole entry): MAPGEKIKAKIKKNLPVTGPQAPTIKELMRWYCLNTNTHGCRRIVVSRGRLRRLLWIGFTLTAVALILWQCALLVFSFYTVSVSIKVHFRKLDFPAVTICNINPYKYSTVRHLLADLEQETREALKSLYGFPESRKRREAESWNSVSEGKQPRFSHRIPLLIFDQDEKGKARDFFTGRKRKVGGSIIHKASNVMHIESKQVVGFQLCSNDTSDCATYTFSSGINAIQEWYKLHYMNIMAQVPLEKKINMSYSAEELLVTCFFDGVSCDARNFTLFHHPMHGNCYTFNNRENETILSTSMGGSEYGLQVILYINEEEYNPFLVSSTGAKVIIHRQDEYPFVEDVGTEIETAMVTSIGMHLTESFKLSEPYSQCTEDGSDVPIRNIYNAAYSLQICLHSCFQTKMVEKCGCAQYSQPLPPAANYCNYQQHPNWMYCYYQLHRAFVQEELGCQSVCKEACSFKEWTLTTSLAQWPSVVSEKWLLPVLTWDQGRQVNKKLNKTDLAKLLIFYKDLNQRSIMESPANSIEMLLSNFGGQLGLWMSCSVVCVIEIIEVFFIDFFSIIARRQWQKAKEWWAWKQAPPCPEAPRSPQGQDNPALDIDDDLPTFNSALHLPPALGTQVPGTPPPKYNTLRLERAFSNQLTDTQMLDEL
T1 sequence (P37088 whole entry): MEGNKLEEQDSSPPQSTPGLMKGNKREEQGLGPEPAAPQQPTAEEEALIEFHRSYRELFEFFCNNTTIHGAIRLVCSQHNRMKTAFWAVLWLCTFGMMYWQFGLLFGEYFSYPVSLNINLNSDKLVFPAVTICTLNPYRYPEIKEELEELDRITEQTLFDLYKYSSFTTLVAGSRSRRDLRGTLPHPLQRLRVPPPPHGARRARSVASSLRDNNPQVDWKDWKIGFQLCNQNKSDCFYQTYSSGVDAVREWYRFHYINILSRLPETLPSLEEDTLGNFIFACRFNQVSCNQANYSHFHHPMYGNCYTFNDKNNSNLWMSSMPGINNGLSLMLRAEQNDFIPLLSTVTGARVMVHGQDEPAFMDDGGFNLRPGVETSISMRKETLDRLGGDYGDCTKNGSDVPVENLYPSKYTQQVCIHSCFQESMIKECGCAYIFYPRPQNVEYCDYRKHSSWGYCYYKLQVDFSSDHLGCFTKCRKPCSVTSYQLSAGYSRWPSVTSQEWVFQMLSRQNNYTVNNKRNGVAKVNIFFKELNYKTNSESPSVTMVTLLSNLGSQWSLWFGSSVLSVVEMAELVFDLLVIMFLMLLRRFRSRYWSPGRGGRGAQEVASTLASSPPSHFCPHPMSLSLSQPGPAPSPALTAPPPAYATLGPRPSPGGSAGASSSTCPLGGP
T1 sequence (P51168 whole entry): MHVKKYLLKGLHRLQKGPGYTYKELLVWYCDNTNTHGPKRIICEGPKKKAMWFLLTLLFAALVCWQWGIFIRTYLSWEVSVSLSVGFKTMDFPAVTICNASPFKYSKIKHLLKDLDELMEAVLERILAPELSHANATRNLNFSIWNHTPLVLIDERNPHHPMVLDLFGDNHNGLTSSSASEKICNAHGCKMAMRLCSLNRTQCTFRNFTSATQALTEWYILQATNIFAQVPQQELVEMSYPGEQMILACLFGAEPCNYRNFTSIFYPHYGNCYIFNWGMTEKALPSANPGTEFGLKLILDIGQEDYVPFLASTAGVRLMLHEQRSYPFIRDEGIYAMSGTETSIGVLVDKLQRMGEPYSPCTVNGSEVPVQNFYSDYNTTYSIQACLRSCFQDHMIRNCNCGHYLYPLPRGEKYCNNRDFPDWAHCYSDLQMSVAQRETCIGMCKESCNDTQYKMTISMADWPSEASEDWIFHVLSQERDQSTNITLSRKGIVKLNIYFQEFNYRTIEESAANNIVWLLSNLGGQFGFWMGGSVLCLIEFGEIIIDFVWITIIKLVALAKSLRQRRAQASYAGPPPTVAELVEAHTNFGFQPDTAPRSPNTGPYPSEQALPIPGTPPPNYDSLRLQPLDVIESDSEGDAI

## CC(C)Oc1ccc(-c2ncc(CNc3ccnc(C(F)(F)F)c3)cn2)cc1Cl [Compound 24]
ENaC channel
  IC50: > 30 µM
hERG
  IC50: 15.8 µM
TRPA1 channel
  IC50: > 30 µM
[1]
  half-life: 9 min
[2]
  Mini‐AMES genotoxicity: no genotoxicity; also recorded: Negative @62.25 µg mL^−1 (147 × 10^−6 M)
[3]; intraperitoneal
  bioavailability: ~36%
[3]; ip
  AUC(0-t): 557 µg·h/mL
  CL/F: 1.7 ± 1.8 mL/min/kg
  Cmax: 65.8 µg/mL
  Tmax: 1 h
  Vd/F: 0.25 ± 0.3 L/kg
  bioavailability: 36.1%
  half-life: 101 min
[3]; po
  CL/F: 1.58 ± 0.4 mL/min/kg
  Cmax: 45.6 µg/mL
  Tmax: 0.83 ± 0.2 h
  Vd/F: 0.25 L/kg
  bioavailability: 13.8%
  half-life: 114 ± 30 min
[3]; sc
  AUC(0-t): 363 µg·h/mL
  CL/F: 0.93 ± 0.1 mL/min/kg
  Tmax: 2 h
  Vd/F: 0.12 L/kg
  bioavailability: 23.5%
  half-life: 90.6 min
